Results as given in patent publication US9079930B2, “Substituted pyrimidines” (MERCK SHARP & DOHME CORP., priority 2011, dated 2015).

molecular target: T1, FLAG-tagged full length PHD2 (Homo sapiens, UniProt Q9GZT9); assay: PHD2 inhibition assay (time resolved fluorescence, HIF-1α peptide hydroxylation, VHL complex detection); assay type: biochemical; settings: 0.2 μM 2-oxoglutarate, 0.5 μM HIF-1α peptide
T1 construct: FLAG-tagged full length PHD2 expressed in and purified from baculovirus-infected Sf9 cells; FLAG; made in house; host or cells: baculovirus-infected Sf9 cells
T1 sequence (Q9GZT9 whole entry): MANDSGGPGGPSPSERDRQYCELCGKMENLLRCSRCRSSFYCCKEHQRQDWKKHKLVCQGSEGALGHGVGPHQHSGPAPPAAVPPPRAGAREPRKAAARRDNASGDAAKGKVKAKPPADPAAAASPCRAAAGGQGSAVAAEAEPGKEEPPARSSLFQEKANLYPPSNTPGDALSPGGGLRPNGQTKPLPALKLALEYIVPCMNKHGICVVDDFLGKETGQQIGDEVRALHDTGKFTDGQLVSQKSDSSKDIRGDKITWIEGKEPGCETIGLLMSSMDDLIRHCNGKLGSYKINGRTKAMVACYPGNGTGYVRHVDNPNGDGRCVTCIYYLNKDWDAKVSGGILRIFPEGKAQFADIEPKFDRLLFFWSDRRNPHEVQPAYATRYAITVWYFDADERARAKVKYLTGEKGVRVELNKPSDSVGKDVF
Procedure: To each well of a 96-well plate was added 1 μL of test compound in DMSO and 20 μl of assay buffer (50 mM Tris pH 7.4/0.01% Tween-20/0.1 mg/ml bovine serum albumin/10 μM ferrous sulfate/i mM sodium ascorbate/20 μg/ml catalase) containing 0.15 μg/ml FLAG-tagged full length PHD2 expressed in and purified from baculovirus-infected Sf9 cells. After a 30 min preincubation at room temperature, the enzymatic reactions were initiated by the addition of 4 μL of substrates (final concentrations of 0.2 μM 2-oxoglutarate and 0.5 μM HIF-1α peptide biotinyl-DLDLEMLAPYIPMDDDFQL (SEQ ID NO: 1)). After 2 hr at room temperature, the reactions were terminated and signals were developed by the addition of a 25 μL quench/detection mix to a final concentration of 1 mM ortho-phenanthroline, 0.1 mM EDTA, 0.5 nM anti-(His)6 LANCE reagent (Perkin-Elmer Life Sciences), 100 nM AF647-labeled streptavidin (Invitrogen), and 2 μg/ml (His)6-VHL complex (S. Tan (2001) Protein Expr. Purif. 21, 224-234). The ratio of time resolved fluorescence signals at 665 and 620 nm was determined, and percent inhibition was calculated relative to an uninhibited control sample run in parallel.

Row | IC50 | Structure (SMILES)
1 | 0.5 to 20 nM | COc1ccc(C(NC(=O)c2cnc(-c3ccccn3)nc2O)c2cccc(P(=O)(O)O)c2)cc1 (stereo not shown) [Compound 5-1, 3-((4-hydroxy-2-(pyridin-2-yl)pyrimidine-5-carboxamido)(4-methoxyphenyl)methyl)phenylphosphonic acid]
2 | 0.5 to 20 nM | CC(C)OP(=O)(OC(C)C)C(NC(=O)c1cnc(-c2ccccn2)nc1O)c1ccccc1 (stereo not shown) [Compound 6-1, Diisopropyl (4-hydroxy-2-(pyridin-2-yl)pyrimidine-5-carboxamido)(phenyl)methyl phosphonate]
3 | 20 to 100 nM | CC(C)OP(=O)(O)C(NC(=O)c1cnc(-c2ccccn2)nc1O)c1ccccc1 (stereo not shown) [Compound 6-2, Isopropyl Hydrogen (4-hydroxy-2-(pyridin-2-yl)pyrimidine-5-carboxamido)(phenyl)methylphosphonate]
4 | 0.5 to 20 nM | CP(=O)(O)c1ccc(C(NC(=O)c2cnc(-n3cccn3)nc2O)c2ccccc2)cc1 (stereo not shown) [Compound 8-4, 4-((4-Hydroxy-2-(1H-pyrazol-1-yl)pyrimidine-5-carboxamido)(phenyl)methyl)phenyl(methyl)phosphinic acid]
5 | 0.5 to 20 nM | COc1ccc(C(NC(=O)c2cnc(-n3cccn3)nc2O)c2ccc([PH](=O)O)cc2)cc1 (stereo not shown) [Compound 9-1, 4-((4-Hydroxy-2-(1H-pyrazol-1-yl)pyrimidine-5-carboxamido)(4-methoxyphenyl)methyl)phenylphosphinic acid]

Further lines, the compound ahead of its results:

Row | Structure (SMILES) | IC50
6 | CCOC(=O)C(C)NP(=O)(N[C@@H](C)C(=O)OCC)c1ccc(C(NC(=O)c2cnc(-c3ccccn3)nc2O)c2ccc(OC)cc2)cc1 (stereo in doubt) [Compound 1-1-3, (2S,2′S)-diethyl 2,2′-((4-((4-hydroxy-2-(pyridin-2-yl)pyrimidine-5-carboxamido)(4-methoxyphenyl)methyl)phenyl)phosphoryl)bis(azanediyl)dipropanoate] | 20 to 100 nM
7 | CCOP(=O)(OCC)c1ccc(C(NC(=O)c2cnc(-c3ccccn3)nc2O)c2ccc(OC)cc2)cc1 (stereo not shown) [Compound 1-1-1, Diethyl 4-((4-hydroxy-2-(pyridin-2-yl)pyrimidine-5-carboxamido)(4-methoxyphenyl)methyl)phenylphosphonate] | 0.5 to 20 nM
8 | COc1ccc(C(NC(=O)c2cnc(-c3ccccn3)nc2O)c2ccc(P(=O)(O)O)cc2)cc1 (stereo not shown) [Compound 1-1-2, 4-((4-hydroxy-2-(pyridin-2-yl)pyrimidine-5-carboxamido)(4-methoxyphenyl)methyl)phenylphosphonic acid] | 0.5 to 20 nM
9 | CCOC(=O)C(C)(C)NP(=O)(NC(C)(C)C(=O)OCC)c1ccc(C(NC(=O)c2cnc(-c3ccccn3)nc2O)c2ccc(OC)cc2)cc1 (stereo not shown) [Compound 1-1-4, diethyl 2,2′-((4-((4-hydroxy-2-(pyridin-2-yl)pyrimidine-5-carboxamido)(4-methoxyphenyl)methyl)phenyl)phosphoryl)bis(azanediyl)bis(2-methylpropanoate)] | 0.5 to 20 nM
10 | CCOC(=O)CNP(=O)(NCC(=O)OCC)c1ccc(C(NC(=O)c2cnc(-c3ccccn3)nc2O)c2ccc(OC)cc2)cc1 (stereo not shown) [Compound 1-1-5, diethyl 2,2′-((4-((4-hydroxy-2-(pyridin-2-yl)pyrimidine-5-carboxamido)(4-methoxyphenyl)methyl)phenyl)phosphoryl)bis(azanediyl)diacetate] | 20 to 100 nM
11 | COc1ccc(C(NC(=O)c2cnc(-c3ccccn3)nc2O)c2ccc([PH](=O)O)cc2)cc1 (stereo not shown) [Compound 1-1-6, 4-((4-hydroxy-2-(pyridin-2-yl)pyrimidine-5-carboxamido)(4-methoxyphenyl)methyl)phenylphosphinic acid] | 0.5 to 20 nM
12 | CCOP(=O)(OCC)c1ccc(C(NC(=O)c2cnc(-c3ccccn3)nc2O)c2ccccc2)cc1 (stereo not shown) [Compound 2-1, Diethyl 4-((4-hydroxy-2-(pyridin-2-yl)pyrimidine-5-carboxamido)(phenyl)methyl)phenyl phosphonate] | 0.5 to 20 nM
13 | O=C(NC(c1ccccc1)c1ccc(P(=O)(O)O)cc1)c1cnc(-c2ccccn2)nc1O (stereo not shown) [Compound 2-2, 4-((4-hydroxy-2-(pyridin-2-yl)pyrimidine-5-carboxamido)(phenyl)methyl)phenyl phosphonic acid] | 0.5 to 20 nM
14 | CCOP(=O)(O)c1ccc(C(NC(=O)c2cnc(-c3ccccn3)nc2O)c2ccccc2)cc1 (stereo not shown) [Compound 2-3, Ethyl 4-((4-hydroxy-2-(pyridin-2-yl)pyrimidine-5-carboxamido)(phenyl)methyl)phenylphosphonate] | 0.5 to 20 nM
15 | CCOP(C)(=O)c1ccc(C(NC(=O)c2cnc(-c3ccccn3)nc2O)c2ccccc2)cc1 (stereo not shown) [Compound 2-4, ethyl 4-((4-hydroxy-2-(pyridin-2-yl)pyrimidine-5-carboxamido)(phenyl)methyl)phenyl(methyl)phosphinate] | 0.5 to 20 nM
16 | CP(=O)(O)c1ccc(C(NC(=O)c2cnc(-c3ccccn3)nc2O)c2ccccc2)cc1 (stereo not shown) [Compound 2-5, 4-((4-hydroxy-2-(pyridin-2-yl)pyrimidine-5-carboxamido)(phenyl)methyl)phenyl(methyl)phosphinic acid] | 0.5 to 20 nM
17 | CCOP(=O)(OCC)c1ccc(C(C)NC(=O)c2cnc(-c3ccccn3)nc2O)cc1 (stereo not shown) [Compound 3-1, Diethyl 4-(1-(4-hydroxy-2-(pyridin-2-yl)pyrimidine-5-carboxamido)ethyl)phenyl phosphonate] | 20 to 100 nM
18 | CC(NC(=O)c1cnc(-c2ccccn2)nc1O)c1ccc(P(=O)(O)O)cc1 (stereo not shown) [Compound 3-2, 4-(1-(4-hydroxy-2-(pyridin-2-yl)pyrimidine-5-carboxamido)ethyl)phenylphosphonic acid] | 100 to 10000 nM
19 | CCOP(=O)(O)c1ccc(C(C)NC(=O)c2cnc(-c3ccccn3)nc2O)cc1 (stereo not shown) [Compound 3-3, Ethyl hydrogen 4-(1-(4-hydroxy-2-(pyridin-2-yl)pyrimidine-5-carboxamido)ethyl)phenylphosphonate] | 100 to 10000 nM
20 | CC(NC(=O)c1cnc(-c2cccnn2)nc1O)c1ccc(P(=O)(O)O)cc1 (stereo not shown) [Compound 3-3a, 4-(1-(4-Hydroxy-2-(pyridazin-3-yl)pyrimidine-5-carboxamido)ethyl)phenylphosphonic acid] | 100 to 10000 nM
21 | C[C@@H](NC(=O)c1cnc(-c2ccccn2)nc1O)c1ccc(P(=O)(O)O)cc1 [Compound 3-5, (R)-4-(1-(4-hydroxy-2-(pyridin-2-yl)pyrimidine-5-carboxamido)ethyl)phenylphosphonic acid] | 100 to 10000 nM
22 | C[C@@H](NC(=O)c1cnc(-c2cccnn2)nc1O)c1ccc(P(=O)(O)O)cc1 [Compound 3-5a, (R)-4-(1-(4-hydroxy-2-(pyridazin-3-yl)pyrimidine-5-carboxamido)ethyl)phenylphosphonic acid] | 20 to 100 nM
23 | C[C@H](NC(=O)c1cnc(-c2ccccn2)nc1O)c1ccc(P(=O)(O)O)cc1 [Compound 3-7, (S)-4-(1-(4-hydroxy-2-(pyridin-2-yl)pyrimidine-5-carboxamido)ethyl)phenylphosphonic acid] | 100 to 10000 nM
24 | C[C@H](NC(=O)c1cnc(-c2cccnn2)nc1O)c1ccc(P(=O)(O)O)cc1 [Compound 3-7a, (S)-4-(1-(4-hydroxy-2-(pyridazin-3-yl)pyrimidine-5-carboxamido)ethyl)phenylphosphonic acid] | 100 to 10000 nM
25 | CCOP(=O)(OCC)c1ccc(C(NC(=O)c2cnc(-c3ccccn3)nc2O)c2ccccc2)cn1 (stereo not shown) [Compound 4-1, Diethyl 5-((4-hydroxy-2-(pyridin-2-yl)pyrimidine-5-carboxamido)(phenyl)methyl)pyridin-2-ylphosphonate] | 0.5 to 20 nM
26 | CCOP(=O)(O)c1ccc(C(NC(=O)c2cnc(-c3ccccn3)nc2O)c2ccccc2)cn1 (stereo not shown) [Compound 4-2, Ethyl hydrogen 5-((4-hydroxy-2-(pyridin-2-yl)pyrimidine-5-carboxamido)(phenyl)methyl)pyridin-2-ylphosphonate] | 0.5 to 20 nM
27 | CCOP(=O)(OCC)c1ccc(C(C)C(=O)Nc2cnc(-c3ccccn3)nc2O)cc1 (stereo not shown) [Compound 7-1, Diethyl 4-(1-(4-hydroxy-2-(pyridin-2-yl)pyrimidin-5-ylamino)-1-oxopropan-2-yl)phenyl phosphonate] | 100 to 10000 nM
28 | CCOP(=O)(OCC)c1ccc(C(NC(=O)c2cnc(-n3cccn3)nc2O)c2ccccc2)cc1 (stereo not shown) [Compound 8-1, Diethyl 4-((4-hydroxy-2-(1H-pyrazol-1-yl)pyrimidine-5-carboxamido)(phenyl)methyl)phenylphosphonate] | 0.5 to 20 nM
29 | CCOP(=O)(O)c1ccc(C(NC(=O)c2cnc(-n3cccn3)nc2O)c2ccccc2)cc1 (stereo not shown) [Compound 8-2, Ethyl hydrogen 4-((4-hydroxy-2-(1H-pyrazol-1-yl)pyrimidine-5-carboxamido)(phenyl)methyl)phenylphosphonate] | 0.5 to 20 nM
30 | CCOP(C)(=O)c1ccc(C(NC(=O)c2cnc(-n3cccn3)nc2O)c2ccccc2)cc1 (stereo not shown) [Compound 8-3, Ethyl 4-((4-hydroxy-2-(1H-pyrazol-1-yl)pyrimidine-5-carboxamido)(phenyl)methyl)phenyl(methyl)phosphinate] | 0.5 to 20 nM
31 | CCOP(=O)(OCC)c1ccc(C(NC(=O)c2cnc(-c3cccnn3)nc2O)c2ccccc2)cc1 (stereo not shown) [Compound 8-5, Diethyl 4-((4-hydroxy-2-(pyridazin-3-yl)pyrimidine-5-carboxamido)(phenyl)methyl)phenylphosphonate] | 0.5 to 20 nM
